Measurements: ChEMBL document CHEMBL1201862, “PubChem BioAssay data set” (2004)
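Compound exposure: 48 hours, 5 concentrations, 96-well plates. The concentration for 50% growth inhibition is given as GI50.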 Activity calls are given as the source filed them. Rule as the data show it: active = GI50 up to about 1.1 µM and inactive = higher.

Columns and labels:
Test in all cases: NCI anticancer screen, dose series, 48 h
SN12C = system: SN12C
DLD-1 = system: DLD-1
NCI-H226 = system: NCI-H226
UACC-62 = system: UACC-62
K562 = system: K562
NCI-H23 = system: NCI-H23
DMS-114 = system: DMS-114
SW-620 = system: SW-620
SNB-19 = system: SNB-19
U-251 = system: U-251
SF-539 = system: SF-539
CCRF-CEM = system: CCRF-CEM
MDA-MB-231 = system: MDA-MB-231
TK-10 = system: TK-10
KM-20L2 = system: KM-20L2
HCT-116 = system: HCT-116
NCI-H522 = system: NCI-H522
SK-OV-3 = system: SK-OV-3
SF-268 = system: SF-268
LXFL 529 = system: LXFL 529
M19-MEL = system: M19-MEL
OVCAR-3 = system: OVCAR-3
MOLT-4 = system: MOLT-4
DMS-273 = system: DMS-273
RXF 393 = system: RXF 393
EKVX = system: EKVX
OVCAR-4 = system: OVCAR-4
HCT-15 = system: HCT-15
KM12 = system: KM12
A498 = system: A498
SK-MEL-5 = system: SK-MEL-5
T47D = system: T47D
SK-MEL-28 = system: SK-MEL-28
MCF7 = system: MCF7
MDA-MB-435 = system: MDA-MB-435
NCI/ADR-RES = system: NCI/ADR-RES
SNB-78 = system: SNB-78
HOP-92 = system: HOP-92
HCC 2998 = system: HCC 2998
PC-3 = system: PC-3
LOX IMVI = system: LOX IMVI
RPMI-8226 = system: RPMI-8226
SF-295 = system: SF-295
A549 = system: A549
COLO 205 = system: COLO 205
ACHN = system: ACHN
Malme-3M = system: Malme-3M
BT-549 = system: BT-549
CAKI-1 = system: CAKI-1
SK-MEL-2 = system: SK-MEL-2
HOP-18 = system: HOP-18
HT-29 = system: HT-29
Hs-578T = system: Hs-578T
DU-145 = system: DU-145
OVCAR-8 = system: OVCAR-8
UACC-257 = system: UACC-257
IGROV-1 = system: IGROV-1
UO-31 = system: UO-31
HL-60 = system: HL-60
M14 = system: M14
SNB-75 = system: SNB-75
SR = system: SR
NCI-H460 = system: NCI-H460
HOP-62 = system: HOP-62
786-0 = system: 786-0
OVCAR-5 = system: OVCAR-5
XF498 = system: XF498

With `C/C(=N\NC(=S)N1CCN(C2CCCCCC2)CC1)c1ccccn1` the GI50 (SN12C) was 111 nM (active), the GI50 (DLD-1) was 10 nM (active) and the GI50 (NCI-H226) was 65.5 nM (active). For the same compound, the GI50 (UACC-62) was < 12 nM (active), the GI50 (K562) was 10 nM (active) and the GI50 (NCI-H23) was 10 nM (active). For the same compound, the GI50 (DMS-114) was 10 nM (active), the GI50 (SW-620) was 10 nM (active) and the GI50 (SNB-19) was 1710 nM (inactive). The GI50 (U-251) was < 11.7 nM (active), the GI50 (SF-539) was 92.7 nM (active) and the GI50 (CCRF-CEM) was 10 nM (active). The GI50 (MDA-MB-231) was 1310 nM (inactive), the GI50 (TK-10) was 740 nM (active) and the GI50 (KM-20L2) was 10 nM (active). The GI50 (HCT-116) was 10 nM (active), the GI50 (NCI-H522) was < 25.3 nM (active) and the GI50 (SK-OV-3) was 56.5 nM (active). For the same compound, the GI50 (SF-268) was 337 nM (active), the GI50 (LXFL 529) was 1 nM (active) and the GI50 (M19-MEL) was 340 nM (active). The GI50 (OVCAR-3) was 10 nM (active), the GI50 (MOLT-4) was 10 nM (active) and the GI50 (DMS-273) was 10 nM (active). The GI50 (RXF 393) was 212 nM (active), the GI50 (EKVX) was < 12.1 nM (active) and the GI50 (OVCAR-4) was 41 nM (active). For the same compound, the GI50 (HCT-15) was 10 nM, the GI50 (KM12) was 19.7 nM (active) and the GI50 (A498) was 1490 nM (inactive). The GI50 (SK-MEL-5) was 24.9 nM (active), the GI50 (T47D) was 10 nM (active) and the GI50 (SK-MEL-28) was 238 nM (active). For the same compound, the GI50 (MCF7) was 10 nM (active), the GI50 (MDA-MB-435) was 161 nM (active) and the GI50 (NCI/ADR-RES) was 10 nM (active). For the same compound, the GI50 (SNB-78) was 2780 nM (inactive), the GI50 (HOP-92) was 47.3 nM (active) and the GI50 (HCC 2998) was < 48.5 nM (active). For the same compound, the GI50 (PC-3) was 10 nM (active), the GI50 (LOX IMVI) was 10 nM (active) and the GI50 (RPMI-8226) was 10 nM (active). The GI50 (SF-295) was < 47.6 nM (active), the GI50 (A549) was < 37.9 nM (active) and the GI50 (COLO 205) was 10 nM (active). The GI50 (ACHN) was 145 nM (active), the GI50 (Malme-3M) was 105 nM (active) and the GI50 (BT-549) was 1270 nM (inactive). The GI50 (CAKI-1) was 37 nM (active), the GI50 (SK-MEL-2) was 481 nM (active) and the GI50 (HOP-18) was 2060 nM (inactive). The GI50 (HT-29) was < 34.3 nM (active), the GI50 (Hs-578T) was 1490 nM (inactive) and the GI50 (DU-145) was 1020 nM (active). The GI50 (OVCAR-8) was 10 nM (active), the GI50 (UACC-257) was 10 nM (active) and the GI50 (IGROV-1) was 10 nM (active). The GI50 (UO-31) was 100 nM (active), the GI50 (HL-60) was 10 nM (active) and the GI50 (M14) was 10 nM (active). The GI50 (SNB-75) was 1710 nM (inactive), the GI50 (SR) was 10 nM (active) and the GI50 (NCI-H460) was 10 nM (active).
For `O=C1/C(=C/c2ccccc2)CN(C(=O)Oc2ccccc2)C/C1=C\c1ccccc1`, the GI50 (SN12C) was 65300 nM (inactive), the GI50 (UACC-62) was 46300 nM (inactive) and the GI50 (K562) was 7130 nM (inactive). The GI50 (NCI-H23) was 33000 nM (inactive), the GI50 (DMS-114) was 17400 nM (inactive) and the GI50 (SW-620) was 20200 nM (inactive). The GI50 (SNB-19) was 13200 nM (inactive), the GI50 (U-251) was 18700 nM (inactive) and the GI50 (SF-539) was 5360 nM (inactive). For the same compound, the GI50 (CCRF-CEM) was 6440 nM (inactive), the GI50 (TK-10) was 17000 nM (inactive) and the GI50 (KM-20L2) was > 100000 nM (inactive). The GI50 (HCT-116) was 6810 nM (inactive), the GI50 (NCI-H522) was 23200 nM (inactive) and the GI50 (HOP-62) was 11200 nM (inactive). The GI50 (SF-268) was 24500 nM (inactive), the GI50 (LXFL 529) was 50600 nM (inactive) and the GI50 (M19-MEL) was 65500 nM (inactive). The GI50 (OVCAR-3) was 99500 nM (inactive), the GI50 (MOLT-4) was 9290 nM (inactive) and the GI50 (DMS-273) was 23100 nM (inactive). For the same compound, the GI50 (RXF 393) was 11100 nM (inactive), the GI50 (786-0) was 10500 nM (inactive) and the GI50 (EKVX) was 62200 nM (inactive). For the same compound, the GI50 (OVCAR-4) was 96200 nM (inactive), the GI50 (HCT-15) was 40600 nM and the GI50 (KM12) was > 100000 nM (inactive). For the same compound, the GI50 (A498) was 57400 nM (inactive), the GI50 (SK-MEL-5) was > 100000 nM (inactive) and the GI50 (OVCAR-5) was > 100000 nM (inactive). The GI50 (SK-MEL-28) was > 100000 nM (inactive), the GI50 (SNB-78) was 20400 nM (inactive) and the GI50 (LOX IMVI) was 5010 nM (inactive). For the same compound, the GI50 (RPMI-8226) was 221 nM (active), the GI50 (SF-295) was 11200 nM (inactive) and the GI50 (A549) was > 100000 nM (inactive). For the same compound, the GI50 (COLO 205) was > 100000 nM (inactive), the GI50 (ACHN) was 21900 nM (inactive) and the GI50 (Malme-3M) was > 100000 nM (inactive). For the same compound, the GI50 (SK-MEL-2) was 15600 nM (inactive), the GI50 (HOP-18) was > 100000 nM (inactive) and the GI50 (HT-29) was > 100000 nM (inactive). The GI50 (OVCAR-8) was 28200 nM (inactive), the GI50 (UACC-257) was > 100000 nM (inactive) and the GI50 (IGROV-1) was 21600 nM (inactive). The GI50 (UO-31) was 34300 nM (inactive), the GI50 (HL-60) was 1700 nM (inactive) and the GI50 (M14) was 21800 nM (inactive). The GI50 (SNB-75) was 4910 nM (inactive), the GI50 (SR) was 7190 nM (inactive) and the GI50 (NCI-H460) was 52100 nM (inactive).
In the case of `C=C1C(=O)O[C@@H]2OC3(C)CCC4C(C)CCC1C42OO3` (stereo partly drawn), the GI50 (SN12C) is reported as 3820 nM (inactive), the GI50 (DLD-1) is reported as 1930 nM (inactive) and the GI50 (NCI-H226) is reported as 11500 nM (inactive). For the same compound, the GI50 (UACC-62) was 2070 nM (inactive), the GI50 (K562) was 2070 nM (inactive) and the GI50 (NCI-H23) was 5600 nM (inactive). For the same compound, the GI50 (XF498) was 2160 nM (inactive), the GI50 (SW-620) was 3050 nM (inactive) and the GI50 (SNB-19) was 14700 nM (inactive). For the same compound, the GI50 (U-251) was 4850 nM (inactive), the GI50 (SF-539) was 2480 nM (inactive) and the GI50 (CCRF-CEM) was 1470 nM (inactive). For the same compound, the GI50 (HCT-116) was 1530 nM (inactive), the GI50 (NCI-H522) was 1700 nM (inactive) and the GI50 (HOP-62) was 22100 nM (inactive). The GI50 (SK-OV-3) was 20300 nM (inactive), the GI50 (SF-268) was 2940 nM (inactive) and the GI50 (M19-MEL) was 3490 nM (inactive). For the same compound, the GI50 (OVCAR-3) was 3410 nM (inactive), the GI50 (MOLT-4) was 1520 nM (inactive) and the GI50 (DMS-273) was 3410 nM (inactive). For the same compound, the GI50 (EKVX) was 11400 nM (inactive), the GI50 (OVCAR-4) was 12600 nM (inactive) and the GI50 (HCT-15) was 1870 nM. The GI50 (KM12) was 3380 nM (inactive), the GI50 (A498) was 3330 nM (inactive) and the GI50 (SK-MEL-5) was 4880 nM (inactive). The GI50 (OVCAR-5) was 15700 nM (inactive), the GI50 (SK-MEL-28) was 11500 nM (inactive) and the GI50 (MCF7) was 3390 nM (inactive). The GI50 (NCI/ADR-RES) was 2420 nM (inactive), the GI50 (HOP-92) was 1850 nM (inactive) and the GI50 (HCC 2998) was 13100 nM (inactive). For the same compound, the GI50 (LOX IMVI) was 2360 nM (inactive), the GI50 (RPMI-8226) was 1420 nM (inactive) and the GI50 (SF-295) was 3850 nM (inactive). For the same compound, the GI50 (A549) was 4990 nM (inactive), the GI50 (COLO 205) was 3460 nM (inactive) and the GI50 (CAKI-1) was 2360 nM (inactive). The GI50 (SK-MEL-2) was 2180 nM (inactive), the GI50 (HOP-18) was 16500 nM (inactive) and the GI50 (HT-29) was 2670 nM (inactive). The GI50 (OVCAR-8) was 3090 nM (inactive), the GI50 (UACC-257) was 3180 nM (inactive) and the GI50 (IGROV-1) was 3580 nM (inactive). The GI50 (UO-31) was 9840 nM (inactive), the GI50 (HL-60) was 449 nM (active) and the GI50 (SNB-75) was 3590 nM (inactive). The GI50 (NCI-H460) was 2380 nM (inactive).
